Test results: PMC9654820, “Immunosuppressive Sesquiterpene Pyridine Alkaloids from Tripterygium wilfordii Hook. f” (Molecules, 2022)
Entries after “also recorded” stand apart in the source; their conditions may differ.

How the values were obtained:
Format in all cases: cell-based
[1] = Cell viability assay (CCK-8); details: human; HEK293 cells, CCK-8, compound at 100 μM, 48 h incubation; read-out: Cell Viability (%) (N = 3)
Procedure: (§1) The viability of HEK293 cells was determined by a CCK-8 assay according to the established protocol. Briefly, 5 × 10^3 cells/well HEK293 cells were cultured in 96-well plates at 37 °C under an atmosphere of 5% CO2 for 24 h and then treated with the tested compounds. After 48 h of incubation, CCK-8 reagent (20 μL) was added into each well and continuously incubated for 2 h at 37 °C. Absorbance at a wavelength of 450 nm was measured by a microplate reader, which was further used to calculate the cell viability. All the experiments were performed in triplicate.

NF-κB pathway = assay: NF-κB inhibitory (immunosuppressive) activity, luciferase reporter assay in LPS-induced HEK293/NF-κB-Luc cells; details: for inhibition at 100 µM / IC50: Homo sapiens; for inhibition at 100 µM: HEK293, 24 h, read-out: NF-κB Inhibitory Rates (%) (N = 3); for IC50: read-out: IC50 NF-κB inhibition
Procedure: The NF-κB inhibitory activities were measured using the HEK293/NF-κB-Luc cells, which were generated as described previously. Briefly, HEK293 cells were co-transfected with a luciferase reporter plasmid, which contained an NF-κB binding site and pcDNA3.1, using Lipofectamine 2000 at a concentration of 10:1. The HEK293/ NF-κB-Luc cells were plated in 48-well plates and cultured in DMEM supplemented with 10% fetal bovine serum (FBS) for 16 h. Then, the cells were treated with the tested compounds, followed by stimulation with 1 μg/mL of LPS for 24 h. The cells were rinsed twice with phosphate-buffered saline (PBS, pH 7.4) and lysed with passive lysis buffer. Then, the inhibitory effects on NF-κB were analyzed using the luciferase assay system according to the manufacturer’s instructions. All the experiments were performed in triplicate.

HEK293 cells = assay: Cell viability assay (CCK-8); details: for influence on the cell viability: CCK-8, at a concentration of 100 μM
Procedure: as §1

[2] = HEK293/NF-κB-Luc cells induced by LPS (1 μg/mL, 24 h), compound at 100 μM
[3] = HEK293/NF-κB-Luc cells induced by LPS

Compound	viability at 48 h, 100 µM [1] [%]	inhibition at 100 µM (NF-κB pathway; [2]) [%]	influence on the cell viability (HEK293 cells)	IC50 (NF-κB pathway; [3]) [µM]	NF-κB Inhibitory Rates (%) (N = 3) (NF-κB pathway; positive control, HEK293/NF-κB-Luc cells induced by LPS, concentration not given)	Cell Viability (%) (N = 3) (HEK293 cells; HEK293 cells, CCK-8, compound at 100 μM, 48 h incubation)	NF-κB Inhibitory Rates (%) (N = 3) (NF-κB pathway; [2])
CC(=O)OCC12[C@H](OC(C)=O)[C@H](OC(C)=O)[C@@H]3[C@@H](O)[C@@]14O[C@@]3(C)COC(=O)c1cccnc1CCC(C)(O)C(=O)O[C@@H]([C@H](OC(=O)c1ccoc1)[C@@H]2OC(C)=O)[C@]4(C)O (stereo partly drawn) [Compound 4, 2β-furanoyloxy-1β,7β,8β,11-tetraacetoxy-4α,5α-dihydroxy-3α,15-[2′-methyl-2′-hydroxy-4′-(3′′-carboxy-2′′ -pyridyl)butanoic acid] dicarbolactone dihydro-β-agarofuran]	101 ± 3.58	7.27 ± 2.28					
CC(=O)OCC12[C@H](OC(C)=O)[C@H](OC(C)=O)[C@@H]3[C@@H](O)[C@@]14O[C@@]3(C)COC(=O)c1cccnc1CCC(C)(O)C(=O)O[C@@H]([C@H](OC(=O)c1ccccc1)[C@@H]2OC(C)=O)[C@]4(C)O (stereo partly drawn) [Compound 5, 2β-benzoyloxy-1β,7β,8β,11-tetraacetoxy-4α,5α-dihydroxy-3α,15-[2′-methyl-2′-hydroxy-4′-(3′′-carboxy-2′′-pyridyl)butanoic acid] dicarbolactone dihydro-β-agarofuran]	93.8 ± 2.2	> 50	no influence on the cell viability; also recorded: no effects on the cell viability	8.75			
CC(=O)OCC12C(OC(C)=O)C(=O)C3C(OC(C)=O)C14OC3(C)COC(=O)c1cccnc1CCC(C)(OC(=O)c1ccoc1)C(=O)OC(C(OC(C)=O)C2OC(C)=O)C4(C)O (stereo not drawn) [Compound 9, 1β,2β,5α,8β,11-pentaacetoxy-4α-droxy-7-oxo-3α,15-[2′-methyl-2′-(3-furoyloxy)-4′-(3′′-carboxy-2′′-pyridyl)butanoic acid] dicarbolactone dihydro-β-agarofuran]	99.5 ± 5.71	37.4 ± 1.99					
CC(=O)OCC12[C@H](OC(C)=O)C(=O)[C@@H]3[C@@H](OC(C)=O)[C@@]14O[C@@]3(C)COC(=O)c1cccnc1CCC(C)(OC(=O)c1ccccc1)C(=O)O[C@@H]([C@H](OC(C)=O)[C@@H]2OC(C)=O)[C@]4(C)O (stereo partly drawn) [Compound 10, 1β,2β,5α,8β,11-pentaacetoxy-4α-droxy-7-oxo-3α,15-[2′-methyl-2′-(3-benzoyloxy)-4′-(3′′-carboxy-2′′-pyridyl)butanoic acid] dicarbolactone dihydro-β-agarofuran]	102.8 ± 0.89	21.7 ± 4.42					
CC(=O)OC[C@]12[C@H](OC(C)=O)[C@H](OC(C)=O)[C@@H]3[C@@H](OC(C)=O)[C@@]14O[C@@]3(C)COC(=O)c1cccnc1CCC(C)(O)C(=O)O[C@@H]([C@H](O)[C@@H]2OC(C)=O)[C@@]4(C)O (stereo partly drawn) [Compound 11, tripfordine A]	102 ± 3.66	> 50	no influence on the cell viability; also recorded: no effects on the cell viability	0.74			
CC(=O)OCC12[C@H](OC(C)=O)[C@H](OC(C)=O)[C@@H]3[C@@H](OC(C)=O)[C@@]14O[C@@]3(C)COC(=O)c1cccnc1CCC(C)C(=O)O[C@@H]([C@H](O)[C@@H]2OC(C)=O)[C@]4(C)O (stereo partly drawn) [Compound 12, wilforjine]	93.5 ± 2.76	23 ± 3.43					
CC(=O)OCC12[C@H](OC(C)=O)C(=O)[C@@H]3[C@@H](OC(C)=O)[C@@]14O[C@@]3(C)COC(=O)c1cccnc1CCC(C)C(=O)O[C@@H]([C@H](OC(C)=O)[C@@H]2OC(C)=O)[C@]4(C)O (stereo partly drawn) [Compound 13, evonimine]	100 ± 6.4	26.5 ± 5.99					
CC(=O)OCC12[C@H](OC(C)=O)[C@H](OC(C)=O)[C@@H]3[C@@H](OC(C)=O)[C@@]14O[C@@]3(C)COC(=O)c1cccnc1CCC(C)(OC(=O)c1ccccc1)C(=O)O[C@@H]([C@H](OC(C)=O)[C@@H]2OC(C)=O)[C@]4(C)O (stereo partly drawn) [Compound 15, wilfornine A]	110 ± 5.83	8.73 ± 2.07					
CC(=O)OC[C@]12[C@H](OC(C)=O)[C@H](OC(C)=O)[C@@H]3[C@@H](OC(C)=O)[C@@]14O[C@@]3(C)COC(=O)c1cccnc1CCC(C)C(=O)O[C@@H]([C@H](OC(=O)c1ccccc1)[C@@H]2OC(C)=O)[C@]4(C)O (stereo partly drawn) [Compound 16, wilforine]	103 ± 2.21	> 50	no influence on the cell viability; also recorded: no effects on the cell viability	15.7			
Cc1ccc(NCCCc2ccccc2)c(N)c1 [JSH23, reference compound]					74.56 ± 1.83		
wilfortrine [Compound 14]						93.76 ± 1.82	40.20 ± 3.92
